The values that follow come from ChEMBL document CHEMBL1201862, “PubChem BioAssay data set” (2004).

Test systems include 786-0; ACHN; BT-549; COLO 205; DU-145; HT-29; Hs-578T; MDA-MB-231; MDA-MB-435; MOLT-4; NCI/ADR-RES; OVCAR-4; PC-3; SK-MEL-28; SK-MEL-2; SK-MEL-5; SR; SW-620; A498; SF-539.
Common to all, as to experiment: NCI tumour cell line growth inhibition, 48 h

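Growth conditions: 96-well plates. Treatment: test compound, 48 hours, 5 concentrations. Analysis: linear interpolation between bracketing concentrations; unreached endpoints set to highest concentration. At the GI50, growth is halved.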 Active and inactive are the calls of the source. Cut-off read from the data, not from the text of the source: active = GI50 up to about 1.1 µM and inactive = higher. Where only a bound is given, the exact number is not on record here.

For the molecule `CCOC(=O)C1CN(C2CC2)CCC1=O` (stereo unspecified), the GI50 in the test with 786-0, in the test with ACHN, in the test on BT-549, in the test on COLO 205, in the test on DU-145 and in the test on HT-29 was > 100 µM (inactive) throughout. Also, the GI50 in the test on Hs-578T, with MDA-MB-231, in the test on MDA-MB-435, in the test with MOLT-4, in the test on NCI/ADR-RES and with OVCAR-4 was > 100 µM (inactive) in each case. In addition, the GI50 in the test on PC-3, with SK-MEL-28, in the test on SK-MEL-2, with SK-MEL-5, with SR and with SW-620 was > 100 µM (inactive) throughout.
With `CC(/C=N\NC(=S)N1CCCCC1)=N/NC(=S)N1CCCCC1`, the GI50 in the test on 786-0 is 2.03 µM (inactive); in the test on A498 it was 1.35 µM (inactive); with ACHN, 0.611 µM (active); in the test with BT-549, 3.03 µM (inactive); with COLO 205, 1.75 µM (inactive); in the test on DU-145, 0.547 µM (active). Besides, the GI50 with HT-29 was 0.931 µM (active); in the test on Hs-578T, 1.41 µM (inactive); with MDA-MB-231, 2.45 µM (inactive); with MDA-MB-435, 2.75 µM (inactive); in the test on MOLT-4, 0.514 µM (active); in the test on NCI/ADR-RES it was 0.759 µM (active). In addition, the GI50 was 2.3 µM (inactive) in the test on OVCAR-4; 0.957 µM (active) in the test on PC-3; 3.65 µM (inactive) in the test with SF-539; 4.49 µM (inactive) in the test on SK-MEL-28; 1.28 µM (inactive) with SK-MEL-2; 1.23 µM (inactive) with SK-MEL-5. In addition, the GI50 in the test on SW-620 was 0.935 µM (active).
Consider `CCCCNc1nc(N)nc(Nc2ccc(Br)cc2)c1N=O`, for which the GI50 was 17.5 µM (inactive) with 786-0; 60.3 µM (inactive) with ACHN; 44.7 µM (inactive) with BT-549; 47 µM (inactive) with COLO 205; 96.8 µM (inactive) with DU-145; 86.5 µM (inactive) with HT-29. For the same molecule, the GI50 was 27.5 µM (inactive) with Hs-578T; 41.8 µM (inactive) in the test with MDA-MB-231; > 100 µM (inactive) in the test with MDA-MB-435; 18.8 µM (inactive) in the test with MOLT-4; 39.4 µM (inactive) with NCI/ADR-RES; 67.5 µM (inactive) in the test on PC-3. Besides, the GI50 with SF-539 is 80.2 µM (inactive); in the test on SK-MEL-28 it was > 100 µM (inactive); with SK-MEL-2, > 100 µM (inactive); with SK-MEL-5, > 100 µM (inactive); with SR, 6.43 µM (inactive); with SW-620, > 100 µM (inactive).
Consider `O=C1C(CN2CCCCC2)CCCC1CN1CCCCC1` (stereo unspecified), for which the GI50 in the test with 786-0 was 8.26 µM (inactive); in the test on ACHN, 18 µM (inactive); in the test with BT-549 it was 16.4 µM (inactive); with DU-145 it was 17.8 µM (inactive); in the test with HT-29, 20.1 µM (inactive); with Hs-578T it was 23.3 µM (inactive). Moreover, the GI50 in the test with MDA-MB-231 was 18.5 µM (inactive); in the test with MDA-MB-435, 17 µM (inactive); with NCI/ADR-RES it was 18.5 µM (inactive); in the test on OVCAR-4, 14.4 µM (inactive); with PC-3, 16.1 µM (inactive); in the test with SF-539, 30.2 µM (inactive). Besides, the GI50 is 17.4 µM (inactive) in the test on SK-MEL-28, 32.1 µM (inactive) with SK-MEL-5, 15.3 µM (inactive) with SR and 5.45 µM (inactive) in the test on SW-620.
